According to PubChem BioAssay AID1431 (PCMD, 2008):
pIC50: −log10 of the molar value. Activity calls are given as the source filed them. No rule for the calls is given here.

Each molecule was assayed against Kallikrein-5 (Homo sapiens) (UniProt Q9Y337) (assay: kallikrein 5 (hK5) inhibition IC50 – biochemical, 1536-well, dose response (AID 1431)). Settings: recombinant KLK5 enzyme activity, fluorogenic substrate.
Chain of Kallikrein-5 (Homo sapiens) (Q9Y337 67-293 limits assumed): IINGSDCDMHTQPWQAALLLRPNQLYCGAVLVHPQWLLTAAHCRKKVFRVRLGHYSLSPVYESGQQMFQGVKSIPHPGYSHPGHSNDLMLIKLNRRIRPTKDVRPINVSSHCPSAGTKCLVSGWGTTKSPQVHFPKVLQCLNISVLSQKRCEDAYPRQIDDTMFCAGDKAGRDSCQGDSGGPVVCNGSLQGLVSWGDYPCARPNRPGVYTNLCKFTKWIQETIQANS

SMILES | IC50 | pIC50
Cc1c(-c2cccs2)[n+](=O)c2c(n1[O-])CCC2 | > 50 µM (inactive) | –
COc1ccc(C2C(C(C)=O)=C(O)C(=O)N2c2nccs2)cc1OC (stereo unspecified) | – | 4.59
COc1ccc(N2C(=O)CC(Nc3cccc([N+](=O)[O-])c3)C2=O)cc1 (stereo unspecified) | > 50 µM (inactive) | –
CCC(=O)N1c2ccccc2NC2=C(C(=O)CCC2)C1c1ccc(N(C)C)cc1 (stereo unspecified) | > 50 µM (inactive) | –
O=C(N/N=C/c1cc([N+](=O)[O-])ccc1O)c1cccc2cc[nH]c12 | > 50 µM (inactive) | –
Cc1ccc(-c2[nH]nc3c2C(c2ccoc2)C(C#N)=C(N)O3)cc1C (stereo unspecified) | > 50 µM (inactive) | –
N#C/C(=N\O)c1nc2ccccc2s1 | > 50 µM (inactive) | –
COc1ccc(Oc2ccccc2/C=N/O)cc1 | > 50 µM (inactive) | –
CC1(C)CC(=O)C(C=Nc2ccccc2Sc2ccccc2)=C(O)C1 | > 50 µM (inactive) | –
COc1ccc(CN2C(=O)c3cccnc3C2Nc2cc(Cl)ccc2OC)cc1 (stereo unspecified) | – | 5.14
COc1ccc(-c2[nH]nc3c2C(c2ccsc2)C(C#N)=C(N)O3)cc1 (stereo unspecified) | > 50 µM (inactive) | –
CCC(=O)N1CCN(CCN=CC2=C(O)CC(C)(C)CC2=O)CC1 | > 50 µM (inactive) | –
CCOC(=O)c1ccc(N=C(c2ccccc2)c2c(O)n(C)c(=O)n(C)c2=O)cc1 | > 50 µM (inactive) | –
O=C1C(C=NCCCN2CCOCC2)=C(O)c2ccccc21 | > 50 µM (inactive) | –
COc1cccc(N2C(=O)CC(NNc3nc4ccccc4s3)C2=O)c1 (stereo unspecified) | > 50 µM (inactive) | –
Cc1cc(C)n(CC2CC(=O)N(c3ccc(Cl)c(Cl)c3)C2=O)n1 (stereo unspecified) | > 50 µM (inactive) | –
COC(=O)c1cc(N2C(=O)C3C(C2=O)C2(C)C=CC3(C)O2)ccc1Cl (stereo unspecified) | > 50 µM (inactive) | –
CC(=O)c1ccc(N2C(=O)C3C(C2=O)C(C(=O)c2ccc(Cl)cc2)N2CCCC32)cc1 (stereo unspecified) | > 50 µM (inactive) | –
CC1=C(C(N)=O)C(c2ccccn2)n2nc(-c3ccccc3Cl)nc2N1 (stereo unspecified) | > 50 µM (inactive) | –
CCC/S(C)=N/S(=O)(=O)c1ccc(C)cc1 (stereo unspecified) | > 50 µM (inactive) | –
CCOc1cc(/C=N/Nc2nc(Nc3ccccc3)nc(N3CCCCC3)n2)ccc1OCC(=O)O | > 50 µM (inactive) | –
Cc1cc2c(C)nc(N/N=C/c3ccc([N+](=O)[O-])cc3)nc2o1 | > 50 µM (inactive) | –

SMILES | IC50 | pIC50
CCOC(=O)C1(C)C=C(Nc2cccc(OC)c2)C(=O)N1c1ccccc1 (stereo unspecified) | > 50 µM (inactive) | –
Cc1ccccc1NC(=O)Cn1c(O)c(N=NC(=O)c2ccccc2O)c2ccccc21 | > 50 µM (inactive) | –
COc1ccc(N2C(N)=C(C#N)C(c3cccnc3)C3=C2CC(C)(C)CC3=O)cc1 (stereo unspecified) | > 50 µM (inactive) | –
COC(=O)c1[nH]c(C)c(/C(O)=C2\C(=O)C(=O)N(CCN(C)C)C2c2cccc(OC)c2OC)c1C (stereo unspecified) | > 50 µM (inactive) | –
O=C1CC(Sc2ccc(Cl)cc2)C(=O)N1c1ccc2c(c1)OCCO2 (stereo unspecified) | > 50 µM (inactive) | –
Cc1cc(N2C(=O)CC(Cc3ccc(Cl)cc3)C2=O)no1 (stereo unspecified) | > 50 µM (inactive) | –
O=c1c(/C=N/O)c(Nc2ccccc2)nc2ccccn12 | > 50 µM (inactive) | –
O=C1CC(SCc2nc3ccccc3[nH]2)C(=O)N1c1ccc(F)cc1 (stereo unspecified) | > 50 µM (inactive) | –
O=C1c2ccccc2C(=O)N1/N=C/c1ccc(O)c(O)c1O | > 50 µM (inactive) | –
COc1ccc2c(c1)C(c1ccc(N3CCOCC3)cc1)=NNC(c1cccnc1)=N2 | > 50 µM (inactive) | –
O=C(N/N=C\c1cccc([N+](=O)[O-])c1O)C1COc2ccccc2O1 (stereo unspecified) | > 50 µM (inactive) | –
COc1cccc(/C(O)=C2/C(=O)C(=O)N(CCCN3CCOCC3)C2c2ccncc2)c1 (stereo unspecified) | – | 4.33
CCCC(C)C1C(C#N)=C(N)Oc2c1c(=O)oc1ccccc21 (stereo unspecified) | > 50 µM (inactive) | –
O=C1CC(c2ccccc2)CC(O)=C1C=NCCN1CCN(C(=S)Nc2cccc(Cl)c2)CC1 (stereo unspecified) | > 50 µM (inactive) | –
CC(C)(CO)N=Cc1c(O)[nH]c2ccccc12 | > 50 µM (inactive) | –
Oc1ccc2ccccc2c1C=NC12CN3CCN(CN(C3)C1)C2 | > 50 µM (inactive) | –
COc1ccc2c(c1)C(c1ccc([N+](=O)[O-])cc1)=NNC(c1ccco1)=N2 | > 50 µM (inactive) | –
N#Cc1c(N)nc2c3c(sc(=N)c2c1N)NC(=O)CC3c1c(F)cccc1Cl (stereo unspecified) | > 50 µM (inactive) | –
CCOC(=O)C1CCCN(C2CC(=O)N(c3ccc(C)cc3)C2=O)C1 (stereo unspecified) | > 50 µM (inactive) | –
Cc1ccc(Cn2c(O)c(N=NC(=S)Nc3ccccc3F)c3cc(S(=O)(=O)N4CCOCC4)ccc32)cc1 | > 50 µM (inactive) | –
CC(=O)C1=C(C)NC(C)=C(C(C)=O)C1c1cccs1 | > 50 µM (inactive) | –
CCN(CC)C(=O)c1sc(NC(=O)Cc2ccccc2)c(C#N)c1C | > 50 µM (inactive) | –

SMILES | IC50 | pIC50
O=C(O)c1cc(/C=N\O)ccc1OCc1ccccc1 | > 50 µM (inactive) | –
O=C(Nc1ccccc1)c1cccc(N2C(=O)CCC2=O)c1 | > 50 µM (inactive) | –
COc1ccc(OC)c(/C=N/Nc2cc(C)nc(N3CCOCC3)n2)c1 | > 50 µM (inactive) | –
CCOC(=O)C1=C(CC)Nc2ccccc2N=C1NC(=O)CCN1C(=O)C2CCCCC2C1=O (stereo unspecified) | > 50 µM (inactive) | –
N#CC1=C(N)NC(SCc2ccccc2)=C(C#N)C12CCCC2 | > 50 µM (inactive) | –
COc1ccc(C2C(C(=O)Nc3ccccc3OC)=C(C)Nc3ncnn32)cc1 (stereo unspecified) | > 50 µM (inactive) | –
Cc1cccc(NC2SC(=O)N(c3ccccc3)C2=O)c1 (stereo unspecified) | > 50 µM (inactive) | –
CC(C)n1c(=O)c(C=Nc2ccc(Br)cc2)c(O)n(Cc2ccco2)c1=O | > 50 µM (inactive) | –
Oc1cccc(NC(=S)N=Nc2c(O)[nH]c3ccccc23)c1 | > 50 µM (inactive) | –
CC1(C)CC(=O)CC(=NCC(=O)O)C1 | > 50 µM (inactive) | –
CCOC(=O)C1=C(N)OC2=C(C(=O)CCC2)C12C(=O)N(CC(N)=O)c1ccccc12 (stereo unspecified) | > 50 µM (inactive) | –
O=c1[nH]c(=O)n(Cc2ccco2)c(O)c1C=NCc1ccco1 | > 50 µM (inactive) | –
O=C1CC(Nc2ccccc2)C(=O)N1c1ccc(N2CCOCC2)cc1 (stereo unspecified) | > 50 µM (inactive) | –
CC1=C(C(=O)N2CCCCC2)C(c2cccs2)C2=C(CCCC2=O)N1 (stereo unspecified) | > 50 µM (inactive) | –
COc1ccc2cc(C3C(C#N)=C(N)OC(C)=C3C(C)=O)c(Cl)nc2c1 (stereo unspecified) | > 50 µM (inactive) | –
COc1cccc(N2CCN(C3CC(=O)N(c4ccc(F)c(Cl)c4)C3=O)CC2)c1 (stereo unspecified) | > 50 µM (inactive) | –
COC(/C=C/Nc1ccc(Br)cc1)=C(C#N)C#N | > 50 µM (inactive) | –
Cc1cc(/C(O)=C2\C(=O)C(=O)N(CCN(C)C)C2c2ccncc2)ccc1OCc1ccccc1 (stereo unspecified) | > 50 µM (inactive) | –
Cc1ccc(NC2c3ncccc3C(=O)N2c2ccccc2C)cc1C (stereo unspecified) | – | 5.26
Cc1cc(N/N=C/c2ccc(O)cc2)nc(NS(=O)(=O)c2ccccc2)n1 | > 50 µM (inactive) | –
COC(=O)c1sc(N2C(=O)C(O)=C(C(=O)c3ccc(C)o3)C2c2ccc(F)cc2)nc1C (stereo unspecified) | > 50 µM (inactive) | –
CC1CC(C)(C)n2c(O)c(N=NC(N)=S)c3cccc1c32 (stereo unspecified) | > 50 µM (inactive) | –
